Tests used:
Format in all cases: biochemical
ALK1 = target: T1, ALK1 (Homo sapiens, UniProt P37023); experiment: TR-FRET enzymatic assay, ALK1 kinase, 1536-well; conditions: for IC50 / ALK1 Span: TR-FRET; for IC50: 10 nM ALK, Ulight topo II substrate 50 nM, ATP 10 uM (Table 1); for ALK1 Span: span of the concentration-response curve
T1 construct: purchased Life technology (Fredrick, Md.) and/or CARNA BIOSCIENCES Inc. (Kobe, Japan)
Excerpt: (§1) We have developed six ALK kinase enzyme assays for determination of compound activities on ALK1, ALK2, ALK3, ALK4, ALK5 and ALK6. For the assay development, we had tested a number of substrates and assay conditions that led to the final optimized assay protocols with good assay windows with signal to basal (S/B) ratios above 20 fold for all six ALK assays (FIG. 1). In our knowledge, these ALK kinase assays have not been reported elsewhere.
(§2) ALK1 and ALK2-ALK6 were obtained from Life technology (Fredrick, Md.) and CARNA BIOSCIENCES Inc. (Kobe, Japan). Ulight-DNA Topoisomerase 2 alpha (Thr-1342) peptide and Europium anti-phospho-DNA Topoisomerase 2 alpha (Thr-1342) antibody was from Perkin Elmer Inc. The kinase buffer was composed of 50 mM HEPES pH7.0, 10 mM MgCl2, 3 mM MnCl2, 0.005% Tween-20 and 2 mM DTT. The compound plates and the white solid MB assay plates were purchased from Greiner Bio-one (Monroe, N.C.).
(§3) The binding of Eu-anti-phospho-peptide antibody to the phosphorylated Ulight peptide substrate bring both Eu donor and Ulight acceptor dye into close proximity. Upon excitation at 320-340 nm, the emission energy from Eu donor is transferred to Ulight acceptor dye that will generate light at 665 nm. The intensity light emission is proportional to the level of the peptide phosphorylation by ALKs. The assay was optimized and performed in 1536 plate (Table 1). Briefly, the ALKs enzymatic assay was initiated by dispense 2.5 ul enzyme with a final concentration at 10 nM prepared in 1× kinase reaction buffer. The assay plate was then added with compounds with the Pintool station (23 nl/well compound dilutions in DMSO solution) that was followed by incubation at room temperature for 10 minutes. Then 2.5 ul/well substrate was added in which 50 nM peptide substrate mixed with 10 uM, 100 uM or 1 mM ATP (final concentration). The assay plate was incubated at room temperature for 60 minutes and the kinase reaction was stopped by addition of 5 ul/well of 4 nM Eu-anti-phospho-peptide antibody with 12 mM EDTA prepared in 1× detection buffer. The assay plate was measured in an EnVision plate reader (Perkin Elmer) in the TR-FRET detection mode (excitation at 340 nm and emission at 665 nm).

ALK2 = target: T2, ALK2 (Homo sapiens, UniProt Q04771); experiment: TR-FRET enzymatic assay, ALK2 kinase, 1536-well; conditions: for IC50 / ALK2 Span: TR-FRET; for IC50: 10 nM ALK, Ulight topo II substrate 50 nM, ATP 10 uM (Table 1); for ALK2 Span: span of the concentration-response curve
T2 construct: purchased Life technology (Fredrick, Md.) and/or CARNA BIOSCIENCES Inc. (Kobe, Japan)
T2 sequence (Q04771 21-509): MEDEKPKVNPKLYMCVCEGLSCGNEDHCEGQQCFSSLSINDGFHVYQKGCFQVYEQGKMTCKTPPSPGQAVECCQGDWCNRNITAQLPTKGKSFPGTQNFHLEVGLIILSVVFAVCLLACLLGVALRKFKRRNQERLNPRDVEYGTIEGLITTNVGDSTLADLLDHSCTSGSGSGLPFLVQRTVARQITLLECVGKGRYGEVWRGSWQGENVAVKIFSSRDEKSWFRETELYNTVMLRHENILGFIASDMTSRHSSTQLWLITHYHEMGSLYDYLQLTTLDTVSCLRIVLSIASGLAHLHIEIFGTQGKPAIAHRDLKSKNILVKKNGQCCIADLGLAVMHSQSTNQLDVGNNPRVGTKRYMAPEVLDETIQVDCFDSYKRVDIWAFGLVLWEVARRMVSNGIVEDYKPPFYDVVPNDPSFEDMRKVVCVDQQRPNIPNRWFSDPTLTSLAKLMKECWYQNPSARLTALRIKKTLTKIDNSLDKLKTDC
Excerpt: as §1, §2, §3

ALK3 = target: T3, ALK3 (Homo sapiens, UniProt P36894); experiment: TR-FRET enzymatic assay, ALK3 kinase, 1536-well; conditions: for IC50: 10 nM ALK, Ulight topo II substrate 50 nM, ATP 10 uM (Table 1); for ALK3 Span: span of the concentration-response curve
T3 construct: purchased Life technology (Fredrick, Md.) and/or CARNA BIOSCIENCES Inc. (Kobe, Japan)
T3 sequence (P36894 24-532): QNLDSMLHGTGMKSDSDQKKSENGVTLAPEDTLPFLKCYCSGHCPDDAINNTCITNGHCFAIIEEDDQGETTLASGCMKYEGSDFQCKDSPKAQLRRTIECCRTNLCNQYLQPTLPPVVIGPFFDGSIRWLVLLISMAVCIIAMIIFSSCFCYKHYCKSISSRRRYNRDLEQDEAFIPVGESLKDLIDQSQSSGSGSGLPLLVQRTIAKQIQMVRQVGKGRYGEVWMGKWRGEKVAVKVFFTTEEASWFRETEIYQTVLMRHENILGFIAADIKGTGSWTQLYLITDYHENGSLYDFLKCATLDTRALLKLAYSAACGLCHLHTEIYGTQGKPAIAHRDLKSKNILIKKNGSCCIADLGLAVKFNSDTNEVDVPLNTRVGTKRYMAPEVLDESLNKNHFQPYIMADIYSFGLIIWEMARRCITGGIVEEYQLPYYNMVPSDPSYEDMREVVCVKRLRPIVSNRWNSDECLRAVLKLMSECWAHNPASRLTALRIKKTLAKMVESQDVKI
Excerpt: as §1, §2, §3

ALK4 = target: T4, ALK4 (Homo sapiens, UniProt P36896); experiment: TR-FRET enzymatic assay, ALK4 kinase, 1536-well; conditions: for IC50: 10 nM ALK, Ulight topo II substrate 50 nM, ATP 10 uM (Table 1); for ALK4 Span: span of the concentration-response curve
T4 construct: purchased Life technology (Fredrick, Md.) and/or CARNA BIOSCIENCES Inc. (Kobe, Japan)
T4 sequence (P36896 24-505): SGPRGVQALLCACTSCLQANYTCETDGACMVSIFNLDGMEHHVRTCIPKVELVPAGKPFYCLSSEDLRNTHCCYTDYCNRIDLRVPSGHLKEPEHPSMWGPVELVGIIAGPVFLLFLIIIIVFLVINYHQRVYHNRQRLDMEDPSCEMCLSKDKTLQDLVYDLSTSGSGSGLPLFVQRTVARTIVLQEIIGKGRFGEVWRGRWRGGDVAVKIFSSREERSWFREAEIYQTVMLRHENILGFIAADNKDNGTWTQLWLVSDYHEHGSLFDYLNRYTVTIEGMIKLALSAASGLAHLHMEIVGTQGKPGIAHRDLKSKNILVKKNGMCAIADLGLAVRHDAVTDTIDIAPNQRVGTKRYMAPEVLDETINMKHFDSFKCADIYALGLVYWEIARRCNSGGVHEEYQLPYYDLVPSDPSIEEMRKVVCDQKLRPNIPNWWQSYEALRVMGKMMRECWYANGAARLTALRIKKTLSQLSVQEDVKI
Excerpt: as §1, §2, §3

ALK6 = target: T5, ALK6 (Homo sapiens, UniProt O00238); experiment: TR-FRET enzymatic assay, ALK6 kinase, 1536-well; conditions: for IC50: 10 nM ALK, Ulight topo II substrate 50 nM, ATP 10 uM (Table 1); for ALK6 Span: span of the concentration-response curve
T5 construct: purchased Life technology (Fredrick, Md.) and/or CARNA BIOSCIENCES Inc. (Kobe, Japan)
T5 sequence (O00238 14-502): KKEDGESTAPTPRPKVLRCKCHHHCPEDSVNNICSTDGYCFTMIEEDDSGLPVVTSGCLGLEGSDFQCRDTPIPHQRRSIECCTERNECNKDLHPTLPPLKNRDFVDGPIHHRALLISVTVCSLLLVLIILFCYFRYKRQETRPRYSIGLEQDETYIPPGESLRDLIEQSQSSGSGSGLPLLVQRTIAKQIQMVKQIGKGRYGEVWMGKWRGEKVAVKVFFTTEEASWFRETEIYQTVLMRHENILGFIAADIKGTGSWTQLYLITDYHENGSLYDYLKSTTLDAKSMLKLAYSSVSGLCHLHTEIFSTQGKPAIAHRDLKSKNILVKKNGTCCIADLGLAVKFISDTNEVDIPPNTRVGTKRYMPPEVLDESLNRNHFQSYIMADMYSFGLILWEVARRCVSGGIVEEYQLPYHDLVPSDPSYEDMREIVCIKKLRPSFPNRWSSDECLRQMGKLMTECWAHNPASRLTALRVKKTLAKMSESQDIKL
Excerpt: as §1, §2, §3

[1] = FIG. 3, ATP 10 uM versus 100 uM or 1 mM

T1 sequence (P37023 22-503): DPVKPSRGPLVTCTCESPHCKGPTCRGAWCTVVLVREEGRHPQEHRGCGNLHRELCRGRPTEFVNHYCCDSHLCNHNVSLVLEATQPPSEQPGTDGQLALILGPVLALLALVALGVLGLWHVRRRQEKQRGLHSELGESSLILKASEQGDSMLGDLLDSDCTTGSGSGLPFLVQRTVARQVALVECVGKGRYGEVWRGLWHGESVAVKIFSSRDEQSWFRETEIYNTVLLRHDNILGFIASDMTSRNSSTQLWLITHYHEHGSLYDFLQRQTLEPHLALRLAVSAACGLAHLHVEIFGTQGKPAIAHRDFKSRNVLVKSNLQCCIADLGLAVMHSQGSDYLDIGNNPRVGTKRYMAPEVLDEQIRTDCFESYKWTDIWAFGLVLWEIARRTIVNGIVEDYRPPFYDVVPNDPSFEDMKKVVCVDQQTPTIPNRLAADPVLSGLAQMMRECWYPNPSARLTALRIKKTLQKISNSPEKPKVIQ

Cc1cc(-c2cnn3cc(N4CCC(N5CCN(C)CC5)CC4)cnc23)c2ccccc2n1 [Compound 8]
IC50 (ALK1): 325 nM | ALK1 Span (ALK1): 89.1 | IC50 (ALK2): 54.3 nM | ALK2 Span (ALK2): 109.4 | IC50 (ALK3): 1240 nM | ALK3 Span (ALK3): 97.0 | IC50 (ALK4): 994 nM | ALK4 Span (ALK4): 96.6 | IC50 (ALK6): 2400 nM | ALK6 Span (ALK6): 86.5

Cc1cc(-c2cnn3cc(N4CCC(N5CCOCC5)CC4)cnc23)c2ccccc2n1 [Compound 11]
IC50 (ALK1): 269 nM | ALK1 Span (ALK1): 91.4 | IC50 (ALK2): 111 nM | ALK2 Span (ALK2): ~117.5 | IC50 (ALK3): 1280 nM | ALK3 Span (ALK3): ~115.7 | IC50 (ALK4): 1030 nM | ALK4 Span (ALK4): 100.0 | IC50 (ALK6): 2980 nM | ALK6 Span (ALK6): 89.9

COc1cc2c(-c3cnn4cc(N5CCC(N6CCN(C)CC6)CC5)cnc34)ccnc2cc1F [Compound 15, 7-fluoro-6-methoxy-4-(6-(4-(4-methylpiperazin-1-yl)piperidin-1-yl)pyrazolo[1,5-a]pyrimidin-3-yl)quinoline]
IC50 (ALK1): 1520 nM | ALK1 Span (ALK1): 92.3 | IC50 (ALK2): 102 nM | ALK2 Span (ALK2): ~117.8 | IC50 (ALK3): 2820 nM | ALK3 Span (ALK3): 96.93 | IC50 (ALK4): 4210 nM | ALK4 Span (ALK4): 101 | IC50 (ALK6): 10300 nM | ALK6 Span (ALK6): 80.81

Cc1cc(-c2cnn3cc(N4CCC(N5CCNCC5)CC4)cnc23)c2ccccc2n1 [Compound 34]
IC50 (ALK1): 671 nM | ALK1 Span (ALK1): 93.42 | IC50 (ALK2): 178 nM | ALK2 Span (ALK2): ~117.8 | IC50 (ALK3): 1870 nM | ALK3 Span (ALK3): 104.4 | IC50 (ALK4): 2030 nM | ALK4 Span (ALK4): 101.1 | IC50 (ALK6): 4060 nM | ALK6 Span (ALK6): 91.28

c1ccc2c(-c3cnn4cc(-c5ccc(N6CCNCC6)cc5)cnc34)ccnc2c1 [TRND00262637-13]
activity in ALK1 in the presence of 10, 100, or 1,000 uM ATP (ALK1; [1]): activity reduced in the higher ATP concentrations | activity in ALK2 in the presence of 10, 100, or 1,000 uM ATP (ALK2; [1]): activity reduced in the higher ATP concentrations
